Laboratory results reported in US20170368082A1, “FORMULATIONS OF BRINCIDOFOVIR” (priority 2016, published 2017).
“And” between values parts separate entries of the source, which are not always exact repeats. Equal entries are not always repeated. Where two headings read alike, the source gives them in different places.

Assay: Phase 2 toxicokinetics of brincidofovir and cidofovir in plasma
Assay type: in vivo, Sprague-Dawley CD rats
Design: Imputed Concentration, Mean: unit: ng/mL
Conditions: for cidofovir Concentration (C): individual animals; for concentration at 1 h / concentration at 2 h / concentration at 8 h / concentration at 24 h / concentration at 0 h: Sprague-Dawley CD, rat, intravenous, 1 mg/kg; for concentration at 1 h / concentration at 2 h / concentration at 8 h / concentration at 24 h / concentration at 0 h / Imputed Concentration, individual animals / Imputed Concentration, Mean: plasma, BLQ imputed as zero
Experimental: Plasma samples (108) were collected 2 hours following the initiation of dosing on Day 1 and Day 7 (Group 1), or at 1, 2, 8, and 24 hours following the initiation of dosing on Day 1, and prior to administration and at 2, 8, and 24 hours following the initiation of dosing on Day 7 (Groups 2 and 3), and analyzed to determine the concentrations of brincidofovir and the metabolite, cidofovir), by LC/MS/MS.
Approximately 0.4 mL of whole blood was obtained via the tail vein from each animal at each time point. Animals were not fasted prior to blood collection. Blood was collected into tubes containing K2EDTA anticoagulant and placed on wet ice in an upright position, per facility SOP prior to processing. Plasma was separated by centrifugation (10 minutes at approximately 2000 g, at approximately 2-8° C.). Approximately 0.10 mL of plasma was transferred into a single cryotube appropriately labeled with study number, animal number, time point, date of sampling and sample type. Remaining plasma was transferred into a second cryotube and retained as a backup sample. Plasma frozen at approximately −80±10° C. within approximately 2 hours after collection of each blood sample until analysis. Animals were euthanized (CO2 inhalation) after the final blood collection.
In general, TK parameters were estimated using mean plasma concentrations of brincidofovir and cidofovir derived from the composite blood sampling design using Phoenix WinNonLin (V 6.3).
A composite blood sampling design was used such that each rat was sampled twice per sampling day. Blood was collected via tail vein from unanesthetized animals into tubes containing anticoagulant and placed on wet ice in an upright position. Animals were not fasted prior to blood collection. Plasma was separated by centrifugation (for 10 minutes at approximately 2000 g, at approximately 2-8° C.), and transferred into individually labeled cryotubes. All cryotubes containing the collected plasma samples were appropriately labeled as to study number, animal number, time point, date of sampling and sample type. All plasma samples were obtained and frozen at approximately −80° C. (±10° C.) within approximately 2 hours after collection of each blood sample until analysis.
Rat plasma bioanalysis was conducted by Pyxant Laboratories. Plasma samples were analyzed for concentrations of brincidofovir and cidofovir using a method based upon protein precipitation extraction followed by LC-MS/MS analysis; calibration ranges for brincidofovir and cidofovir were 1.00-1500 ng/mL and 5.00-750 ng/mL, respectively, (Pyxant study number 3025) for a 50 μL aliquot of rat plasma. Sample analysis for ISR was not performed as part of this non-GLP study.
For the generation of Mean Profiles, all sample concentrations that were below the limit of quantitation (BLQ) were set to 0.
All pharmacokinetic parameter estimates were completed using a Non-Compartmental Model (Model 200-202 for IV infusion administration). The AUClast and AUCinf were calculated using the linear up log down trapezoidal rule.

[1] = brincidofovir 1 mg/kg 2-h IV infusion, female rats, Day 7, 0 h
[2] = brincidofovir 1 mg/kg 2-h IV infusion, female rats, Day 7, 2 h
[3] = brincidofovir 1 mg/kg 2-h IV infusion, female rats, Day 7, 8 h
[4] = brincidofovir 1 mg/kg 2-h IV infusion, female rats, Day 7, 24 h
[5] = brincidofovir 1 mg/kg 2-h IV infusion, male rats, Day 7, 2 h
[6] = brincidofovir 1 mg/kg 2-h IV infusion, male rats, Day 7, 8 h
[7] = brincidofovir 1 mg/kg 2-h IV infusion, male rats, Day 7, 24 h
[8] = brincidofovir 15 mg/kg 2-h IV infusion, female rats, Day 1, 1 h
[9] = brincidofovir 15 mg/kg 2-h IV infusion, female rats, Day 1, 2 h
[10] = brincidofovir 15 mg/kg 2-h IV infusion, female rats, Day 1, 8 h
[11] = brincidofovir 15 mg/kg 2-h IV infusion, female rats, Day 1, 24 h
[12] = brincidofovir 15 mg/kg 2-h IV infusion, female rats, Day 7, 0 h
[13] = brincidofovir 15 mg/kg 2-h IV infusion, female rats, Day 7, 2 h
[14] = brincidofovir 15 mg/kg 2-h IV infusion, male rats, Day 1, 1 h
[15] = brincidofovir 15 mg/kg 2-h IV infusion, male rats, Day 1, 2 h
[16] = brincidofovir 15 mg/kg 2-h IV infusion, male rats, Day 1, 8 h
[17] = brincidofovir 15 mg/kg 2-h IV infusion, male rats, Day 1, 24 h
[18] = brincidofovir 15 mg/kg 2-h IV infusion, male rats, Day 7, 0 h
[19] = brincidofovir 15 mg/kg 2-h IV infusion, male rats, Day 7, 2 h

For `Nc1ccn(C[C@@H](CO)OCP(=O)(O)O)c(=O)n1` [Cidofovir], the “cidofovir Concentration (C)” value (brincidofovir 1 mg/kg, Female, Day 1, 1 h) was “BLQ”, the “cidofovir Concentration (C)” value (brincidofovir 1 mg/kg, Female, Day 1, 8 h) was “BLQ” and the “cidofovir Concentration (C)” value (brincidofovir 1 mg/kg, Female, Day 1, 24 h) was “BLQ”. The “cidofovir Concentration (C)” value (brincidofovir 1 mg/kg, Female, Day 7, 0 h) was “BLQ”, the “cidofovir Concentration (C)” value (brincidofovir 1 mg/kg, Female, Day 7, 24 h) was “BLQ” and the “cidofovir Concentration (C)” value (brincidofovir 1 mg/kg, Male, Day 1, 1 h) was “BLQ”. The “cidofovir Concentration (C)” value (brincidofovir 1 mg/kg, Male, Day 1, 2 h) was “BLQ”, the “cidofovir Concentration (C)” value (brincidofovir 1 mg/kg, Male, Day 1, 8 h) was “BLQ” and the “cidofovir Concentration (C)” value (brincidofovir 1 mg/kg, Male, Day 1, 24 h) was “BLQ”. The “cidofovir Concentration (C)” value (brincidofovir 1 mg/kg, Male, Day 7, 0 h) was “BLQ”, the “cidofovir Concentration (C)” value (brincidofovir 1 mg/kg, Male, Day 7, 2 h) was “BLQ” and the “cidofovir Concentration (C)” value (brincidofovir 1 mg/kg, Male, Day 7, 24 h) was “BLQ”. For the same compound, the “cidofovir Concentration (C)” value (brincidofovir 15 mg/kg, Female, Day 7, 0 h) was “BLQ”, the “cidofovir Concentration (C)” value (brincidofovir 15 mg/kg, Male, Day 1, 1 h) was “BLQ” and the “cidofovir Concentration (C)” value (brincidofovir 15 mg/kg, Male, Day 7, 0 h) was “BLQ”. For the same compound, the concentration at 1 h (female, brincidofovir 1 mg/kg 2-h IV infusion, female rats, Day 1, 1 h, read-out: Imputed Concentration, Mean) was 0 ng/mL, the concentration at 1 h (female, brincidofovir 1 mg/kg 2-h IV infusion, female rats, Day 1, 1 h, read-out: Imputed Concentration, individual animals) was 0 ng/mL and the concentration at 2 h (female, brincidofovir 1 mg/kg 2-h IV infusion, female rats, Day 1, 2 h, read-out: Imputed Concentration, Mean) was 9.35 ng/mL. For the same compound, the concentration at 2 h (female, brincidofovir 1 mg/kg 2-h IV infusion, female rats, Day 1, 2 h, read-out: Imputed Concentration, individual animals) was 9.62 ng/mL, the concentration at 8 h (female, brincidofovir 1 mg/kg 2-h IV infusion, female rats, Day 1, 8 h, read-out: Imputed Concentration, Mean) was 4.24 ng/mL and the concentration at 24 h (female, brincidofovir 1 mg/kg 2-h IV infusion, female rats, Day 1, 24 h, read-out: Imputed Concentration, Mean) was 0 ng/mL. The concentration at 24 h (female, brincidofovir 1 mg/kg 2-h IV infusion, female rats, Day 1, 24 h, read-out: Imputed Concentration, individual animals) was 0 ng/mL, the concentration at 0 h (female, brincidofovir 1 mg/kg 2-h IV infusion, female rats, Day 7, 0 h, read-out: Imputed Concentration, individual animals) was 0 ng/mL and the concentration at 1 h (male, brincidofovir 1 mg/kg 2-h IV infusion, male rats, Day 1, 1 h, read-out: Imputed Concentration, Mean) was 0 ng/mL. The concentration at 1 h (male, brincidofovir 1 mg/kg 2-h IV infusion, male rats, Day 1, 1 h, read-out: Imputed Concentration, individual animals) was 0 ng/mL, the concentration at 2 h (male, brincidofovir 1 mg/kg 2-h IV infusion, male rats, Day 1, 2 h, read-out: Imputed Concentration, Mean) was 0 ng/mL and the concentration at 2 h (male, brincidofovir 1 mg/kg 2-h IV infusion, male rats, Day 1, 2 h, read-out: Imputed Concentration, individual animals) was 0 ng/mL. For the same compound, the concentration at 8 h (male, brincidofovir 1 mg/kg 2-h IV infusion, male rats, Day 1, 8 h, read-out: Imputed Concentration, Mean) was 1.95 ng/mL, the concentration at 24 h (male, brincidofovir 1 mg/kg 2-h IV infusion, male rats, Day 1, 24 h, read-out: Imputed Concentration, Mean) was 0 ng/mL and the concentration at 24 h (male, brincidofovir 1 mg/kg 2-h IV infusion, male rats, Day 1, 24 h, read-out: Imputed Concentration, individual animals) was 0 ng/mL. The concentration at 0 h (male, brincidofovir 1 mg/kg 2-h IV infusion, male rats, Day 7, 0 h, read-out: Imputed Concentration, Mean) was 0 ng/mL, the concentration at 0 h (male, brincidofovir 1 mg/kg 2-h IV infusion, male rats, Day 7, 0 h, read-out: Imputed Concentration, individual animals) was 0 ng/mL and the “Imputed Concentration, individual animals” value (brincidofovir 1 mg/kg 2-h IV infusion, female rats, Day 1, 1 h) was 0.00 ng/mL. The “Imputed Concentration, individual animals” value (brincidofovir 1 mg/kg 2-h IV infusion, female rats, Day 1, 2 h) was 6.22 ng/mL and 12.2 ng/mL, the “Imputed Concentration, individual animals” value (brincidofovir 1 mg/kg 2-h IV infusion, female rats, Day 1, 8 h) was 7.12 ng/mL and 5.60 ng/mL and 0.00 ng/mL and the “Imputed Concentration, individual animals” value (brincidofovir 1 mg/kg 2-h IV infusion, female rats, Day 1, 24 h) was 0.00 ng/mL. The “Imputed Concentration, Mean” value [1] was 0.00 ng/mL, the “Imputed Concentration, individual animals” value [1] was 0.00 ng/mL and the “Imputed Concentration, Mean” value [2] was 15.0 ng/mL. For the same compound, the “Imputed Concentration, individual animals” value [2] was 13.5 ng/mL and 13.8 ng/mL and 17.6 ng/mL, the “Imputed Concentration, Mean” value [3] was 7.57 ng/mL and the “Imputed Concentration, individual animals” value [3] was 9.51 ng/mL and 7.84 ng/mL and 5.36 ng/mL. The “Imputed Concentration, Mean” value [4] was 0.00 ng/mL, the “Imputed Concentration, individual animals” value [4] was 0.00 ng/mL and the “Imputed Concentration, individual animals” value (brincidofovir 1 mg/kg 2-h IV infusion, male rats, Day 1, 1 h) was 0.00 ng/mL. For the same compound, the “Imputed Concentration, individual animals” value (brincidofovir 1 mg/kg 2-h IV infusion, male rats, Day 1, 2 h) was 0.00 ng/mL, the “Imputed Concentration, individual animals” value (brincidofovir 1 mg/kg 2-h IV infusion, male rats, Day 1, 8 h) was 5.85 ng/mL and 0.00 ng/mL (2×) and the “Imputed Concentration, individual animals” value (brincidofovir 1 mg/kg 2-h IV infusion, male rats, Day 1, 24 h) was 0.00 ng/mL. The “Imputed Concentration, individual animals” value (brincidofovir 1 mg/kg 2-h IV infusion, male rats, Day 7, 0 h) was 0.00 ng/mL, the “Imputed Concentration, Mean” value [5] was 0.00 ng/mL and the “Imputed Concentration, individual animals” value [5] was 0.00 ng/mL. For the same compound, the “Imputed Concentration, Mean” value [6] was 5.73 ng/mL, the “Imputed Concentration, individual animals” value [6] was 5.67 ng/mL and 5.45 ng/mL and 6.07 ng/mL and the “Imputed Concentration, Mean” value [7] was 0.00 ng/mL. The “Imputed Concentration, individual animals” value [7] was 0.00 ng/mL, the “Imputed Concentration, Mean” value [8] was 15.1 and the “Imputed Concentration, individual animals” value [8] was 14.5 and 20.5 and 10.3. The “Imputed Concentration, Mean” value [9] was 28.7, the “Imputed Concentration, individual animals” value [9] was 10.9 and 41.2 and 34.1 and the “Imputed Concentration, Mean” value [10] was 38.6. The “Imputed Concentration, individual animals” value [10] was 37.3 and 37.7 and 40.7, the “Imputed Concentration, Mean” value [11] was 22.1 and the “Imputed Concentration, individual animals” value [11] was 24.6 and 23.2 and 18.6. For the same compound, the “Imputed Concentration, Mean” value [12] was 0.00, the “Imputed Concentration, individual animals” value [12] was 0.00 and the “Imputed Concentration, Mean” value [13] was 34.5. For the same compound, the “Imputed Concentration, individual animals” value [13] was 20.2 and 49.1 and 34.2, the “Imputed Concentration, individual animals” value (brincidofovir 15 mg/kg 2-h IV infusion, female rats, Day 7, 8 h) was 36.4 and 54.2 and the “Imputed Concentration, Mean” value [14] was 5.35. For the same compound, the “Imputed Concentration, individual animals” value [14] was 8.97 and 0.00 and 7.08, the “Imputed Concentration, Mean” value [15] was 18.0 and the “Imputed Concentration, individual animals” value [15] was 25.9 and 13.1 and 15.1. For the same compound, the “Imputed Concentration, Mean” value [16] was 32.8, the “Imputed Concentration, individual animals” value [16] was 35.8 and 29.5 and 33.0 and the “Imputed Concentration, Mean” value [17] was 16.7. For the same compound, the “Imputed Concentration, individual animals” value [17] was 20.5 and 14.0 and 15.5, the “Imputed Concentration, Mean” value [18] was 0.00 and the “Imputed Concentration, individual animals” value [18] was 0.00. The “Imputed Concentration, Mean” value [19] was 24.0, the “Imputed Concentration, individual animals” value [19] was 38.8 and 15.0 and 18.3 and the “Imputed Concentration, individual animals” value (brincidofovir 15 mg/kg 2-h IV infusion, male rats, Day 7, 8 h) was 38.4 and 31.1 and 28.8.
